The text below walks through data of US7431936B2, “Proteins involved in cytoadhesion of plasmodium falciparum ring-stage-infected erythrocytes, antibodies which bind to the proteins, and methods for detecting infection, stage of infection and vaccines for protecting against infection” (Institut Pasteur, priority 2000, dated 2008).

In assay [1] the test system is ring-stage PA^CSA IE cytoadhesion to SBEC ID. The experiment in a line: Protease sensitivity of ring-stage IE cytoadhesion. The note with it: protease concentration of 100 μg/ml (FIG. 3C). The class given is cell-based, P. falciparum. As to the method:
The protease sensitivity of ring-stage IE cytoadhesion was analyzed using 5 μl of packed PA^CSA IE (8 hours post-invasion). IE were incubated with 10 or 100 μg/ml of trypsin TPCK (Signa) or 100 µg/ml of -chymotrypsin TLCK (Sigma) for 30 minutes at 37° C. The digestion was topped by adding culture medium containing 10% human plasma. The cells were then washed in cytoadhesion medium and allowed to cytoadhere to SBEC ID, as previously described, using untreated PA^CSA as a control.

Assay [2] deals with ring-stage IE^CSA cytoadhesion to SBEC 1D. The experiment in a line: Cytoadhesion inhibition assay of IE^CSA on SBEC 1D. The assay is classed as cell-based, P. falciparum. Particulars: for inhibitory effect on ring-stage IE binding to SBEC 1D: ring-stage PA^CSA IE 8 hours post-invasion, glycosaminoglycan present or target cells enzyme-treated (FIG. 2B), thrombospondin data not shown; for sensitivity of ring-stage IE^CSA cytoadhesion to inhibitor: 0.1 mg.ml of CSA, or prior treating of target cells with 1 U/ml Case ABC, until the 16th hour after invasion (FIG. 2A); for time after invasion at which inhibition was maximal: CSA and Case ABC tested every 4 hours throughout the cycle (FIG. 2A). As to the method:
Gelatin-enriched preparations of mature-stage IE were resuspended at a concentration of 5×10^6 IE/ml in cytoadhesion medium at pH 6.8. Cytoadhesion microassays were then performed on 12-well IFA slides (Institut Pasteur, Paris) as previously desribed^15.
Ring-stage cytoadhesion assays were performed with endothelial cells as described above and with placental cryosections as previously described^11, with 1 to 10% parasitaemia (a 1×10^7 IE/ml suspension).
For cytoadhesion inhibition assays, the IE were incubated with SBEC in the presence of 2.5 μg/ml thrombospondin, 0.1 mg/ml soluble CSA, dermatan sulphate (CSB), chondroitin-6-sulphate (CSC), keratin sulphate (Ker), byaluronic acid (HA), heparin (Hep) (Fluka, France), or with SBEC previously incubated for 1 hour at 37° C. with 1 U/ml Case (Fluka, France), 1 to 10 U/ml heparinase III (Hepase III (Sigma, France) or 5 μg/ml anti-CD36 FA6-152 Mab (gift from Dr. Edelman). Inhibition assays were also carried out in the presence of sera obtained from Senegalese and Cameroonian patients living in areas of endemic malaria. The sera were obtained from primigravida and multigravida women, an adult and a child, absorbed onto O^+ human blood and SBEC ID, and tested at a dilution of 1/20. The results were compared to those for cytoadhesion in the presence of a 1/20 dilution of a pool of control sera from volunteers who had never contacted malaria.

As for -chymotrypsin, in assay [1], the “inhibition of ring-stage IE adhesion after protease treatment of IE” value was “substantially inhibited”.

With Hyaluronic acid, the “inhibitory effect on ring-stage IE binding to SBEC 1D” value (“inhibitory effect” for short) in assay [2] is listed as “no activity”.

Consider “Thrombospondin: mature-stage IE adhesion receptor protein tested at 2.5 μg/ml”, for which the “inhibitory effect” value in assay [2] is given as “no effect”.

Regarding chondroitin-sulphate A [CSA], in assay [2], the “sensitivity of ring-stage IE^CSA cytoadhesion to inhibitor” value is recorded as “insensitive” and the “time after invasion at which inhibition was maximal” value came to 24 h.

chondroitinase ABC [Case]: in assay [2], the “sensitivity of ring-stage IE^CSA cytoadhesion to inhibitor” value was “insensitive”, the “time after invasion at which inhibition was maximal” value was found to be 24 h and the “inhibitory effect” value is “no significant inhibitory activity”.

In the case of dermatan-sulphate [CSB], the “inhibitory effect” value in assay [2] was “not specific”.

For heparin, the “inhibition of ring-stage cytoadhesion” value in assay [2] (Heparin (100 m/ml) and heparinase, SBEC 1D (FIG. 2B)) was “about 50%”.

On to hyaluronate lyase, for which the “inhibitory effect” value in assay [2] is reported as “low level of inhibitory activity”.

B1: trypsin: protease used to treat ring-stage IE (protein, UniProt P00760 24-246, looked up)
Serine protease 1: IVGGYTCGANTVPYQVSLNSGYHFCGGSLINSQWVVSAAHCYKSGIQVRLGEDNINVVEGNEQFISASKSIVHPSYNSNTLNNDIMLIKLKSAASLNSRVASISLPTSCASAGTQCLISGWGNTKSSGTSYPDVLKCLKAPILSDSSCKSAYPGQITSNMFCAGYLEGGKDSCQGDSGGPVVCSGKLQGIVSWGSGCAQKNKPGVYTKVCNYVSWIKQTIASN
modifications: TPCK-treated
notes: protease used to treat ring-stage IE
With B1, in assay [1], the “inhibition of ring-stage IE adhesion after protease treatment of IE” value is on record as “substantially inhibited”.
